The SangsterLogP compilation
Starred links: 1 amine or outer side, 2 acyl side, 3 side chain; linkers in the order of their positions; H or OH if unused. Positions of bridges follow the written chain, without caps; N, C: chain ends. Non-standard residues stand in square brackets, D forms with d. Residues, ends and D or L forms follow the SMILES beside them. Chains are numbered I, II in the order given. Actinocin(9to1) = Cc1c2oc3c(C)ccc(C(=O)[*:1])c3nc-2c(C(=O)[*:2])c(N)c1=O; NMeV = CN[CH](C(=O)O)C(C)C; Sar = CNCC(=O)O

test: method code SF, from Hansch, C. & Leo, A. (1987). Log P database [Dataset]. Pomona College Medicinal Chemistry Project.; conditions: not given

Question: For `O=[N+]([O-])c1ccc2ncccc2c1`, which logP is on record?
Answer: 1.84

Question: With `O=C1C(N2CCOCC2)=C(N2CC2)C(=O)C(N2CCOCC2)=C1N1CC1` as the molecule, how does the logP read?
Answer: 0.52

Question: Which logP does the source give for `CCCCCCCCOC(=O)c1cccc(C(=O)OCCCCCCCC)c1` here?
Answer: 5.55

Question: For `CCCN(CCC)/N=C/c1c2c(O)c3c(O)c(C)c4c(c3c1O)C(=O)C(C)(O/C=C\C(OC)C(C)C(OC(C)=O)C(C)C(O)C(C)C(O)C(C)/C=C\C=C(C)C(=O)N2)O4` (stereo unspecified), which logP is on record?
Answer: 3.83

Question: For `COc1ccc(C(C)=O)c(N)c1`, which logP is on record?
Answer: 1.76

Question: For `c1nc[nH]n1`, which logP is on record?
Answer: -0.58

Question: Which logP does the source give for `O=C(O)Cc1ccc(S(=O)(=O)F)cc1` here?
Answer: 1.86

Question: With `O=C1Cc2ccccc2CCc2ccccc21` as the molecule, how does the logP read?
Answer: 2.58

Question: For `CC(=O)c1ccco1`, which logP is on record?
Answer: 0.52

Question: With `CC(=O)Oc1cccc(F)c1` as the molecule, how does the logP read?
Answer: 1.74

Question: With `CCCOCCC` as the molecule, how does the logP read?
Answer: 2.03

Question: For `CCOCOCC`, which logP is on record?
Answer: 0.84

Question: For `O=C(O)CS`, which logP is on record?
Answer: 0.09

Question: For `COc1cc(C=NOC(=O)c2ccccc2OC)ccc1OCCO`, which logP is on record?
Answer: 2.84

Question: With `CCC(C)NC(=O)C(=Cc1ccccc1)Cc1ccccc1` (stereo unspecified) as the molecule, how does the logP read?
Answer: 3.99

Question: With `C=C(Cl)Cl` as the molecule, how does the logP read?
Answer: 2.13

Question: For `CN(C)c1ccc2c(c1)C(=O)OC2(C)C`, which logP is on record?
Answer: 2.42

Question: Which logP does the source give for `CC(=O)Nc1cccc(N(C)C)c1` here?
Answer: 1.29

Question: With `CC=CC1=Nc2cc(Cl)ccc2S(=O)(=O)N1` as the molecule, how does the logP read?
Answer: 1.96

Question: For `O=C(O)c1cccc(CSc2ccccc2)c1O`, which logP is on record?
Answer: 4.28

Question: For `CNP(=O)(OC)Oc1ccc(C(C)(C)C)cc1` (stereo unspecified), which logP is on record?
Answer: 2.71

Question: With `COP(N)(=O)Oc1cc(Cl)c(Cl)cc1Cl` (stereo unspecified) as the molecule, how does the logP read?
Answer: 2.53

Question: With `c1ccc(-n2cnnn2)cc1` as the molecule, how does the logP read?
Answer: 1.09

Question: For `NS(=O)(=O)NS(=O)(=O)Nc1ccccc1`, which logP is on record?
Answer: 0.02

Question: With `CNP(=O)(OC)Oc1ccc(C(C)(C)C)cc1Cl` (stereo unspecified) as the molecule, how does the logP read?
Answer: 3.42

Question: For `NC(=O)NN=CCCc1ccccc1`, which logP is on record?
Answer: 2.32

Question: For `CN(C)C(=O)c1ccoc1`, which logP is on record?
Answer: 0.24

Question: For `Nc1nc2ccccc2c(=O)[nH]1`, which logP is on record?
Answer: 0.6

Question: Which logP does the source give for `CCOP(=S)(OCC)Oc1ccc(SC)c(Cl)c1` here?
Answer: 5.06

Question: For `CNc1ccccn1`, which logP is on record?
Answer: 1.07

Question: For `NNC(=O)c1ccncc1`, which logP is on record?
Answer: -0.5

Question: With `O=C(Nc1ccc(Br)cc1)C(F)(F)F` as the molecule, how does the logP read?
Answer: 3.34

Question: For `Cc1nnc(SCc2ccccc2)o1`, which logP is on record?
Answer: 1.74

Question: With `CC1=Nc2cc(Cl)ccc2S(=O)(=O)N1` as the molecule, how does the logP read?
Answer: 1.21

Question: Which logP does the source give for `OC(O)C(Cl)(Cl)Cl` here?
Answer: 0.99

Question: With `CN(C)c1ncnc2sccc12` as the molecule, how does the logP read?
Answer: 1.82

Question: Which logP does the source give for `c1ccc2c(c1)CCC2` here?
Answer: 3.33

Question: With `O=C1C(=O)c2cccc3cccc1c23` as the molecule, how does the logP read?
Answer: 1.95

Question: For `N#CN=[N+]([O-])c1cccc(F)c1`, which logP is on record?
Answer: 1.85

Question: With `CC1=Nc2ccccc2S(=O)(=O)N1` as the molecule, how does the logP read?
Answer: 0.29

Question: For `C(#Cc1ccccc1)c1ccccc1`, which logP is on record?
Answer: 4.78

Question: For `O=C(O)C(Cl)(Cl)Cl`, which logP is on record?
Answer: 1.33

Question: Which logP does the source give for `CC1=Nc2cccc(Cl)c2S(=O)(=O)N1` here?
Answer: 0.62

Question: For `CSCCC(=O)N(C)c1ccc(S(=O)(=O)N(C)C)cc1`, which logP is on record?
Answer: 0.99

Question: Which logP does the source give for `O=S(=O)(Nc1ccccc1)c1ccccc1` here?
Answer: 2.58

Question: Which logP does the source give for `O=[N+]([O-])c1ccc(C=Cc2ncccn2)o1` here?
Answer: 1.34

Question: Which logP does the source give for `C=CCOc1ccccc1` here?
Answer: 2.94

Question: Which logP does the source give for `CNC(=O)N(C)c1ccccc1` here?
Answer: 1.02

Question: With `COC(=O)c1ccc[nH]1` as the molecule, how does the logP read?
Answer: 1.17

Question: For `Nc1ccc(I)cc1`, which logP is on record?
Answer: 2.34

Question: For `N#CN=[N+]([O-])c1cccc(C(F)(F)F)c1`, which logP is on record?
Answer: 2.52

Question: Which logP does the source give for `Nc1ccc2nc3ccccc3cc2c1` here?
Answer: 2.62

Question: For `CC(=O)NC1CCSC1=O` (stereo unspecified), which logP is on record?
Answer: -0.35

same assay, conditions: pH 1.4

Question: With `Oc1cc(O)cc(O)c1` as the molecule, how does the logD read?
Answer: 0.16

same assay, conditions: pH 2.0

Question: Which logD does the source give for `O=C(O)c1cc2ccccc2[nH]1` here?
Answer: 2.31

same assay, conditions: pH 7.0

Question: With `COc1cccc(C(C)=O)c1` as the molecule, how does the logD read?
Answer: 1.84

Question: With `O=CNc1ccc(F)cc1` as the molecule, how does the logD read?
Answer: 1.27

Question: For `NC(=O)c1ccco1`, which logD is on record?
Answer: -0.11

same assay, conditions: pH 7.4

Question: For `CCN(CC)c1c(C)n(C)c(=O)n(-c2ccccc2)c1=O`, which logD is on record?
Answer: 2.11

Question: For `Cc1c(N(C)C)c(=O)n(CCO)c(=O)n1-c1ccccc1`, which logD is on record?
Answer: 1.12

Question: For `COC1OCC(O)C(NC(=O)N(C)N=O)C1O` (stereo unspecified), which logD is on record?
Answer: -1.08

Question: Which logD does the source give for `Cc1c(N2CCOCC2)c(=O)n(C)c(=O)n1C1CCCCC1` here?
Answer: 2.39

Question: Which logD does the source give for `CC(=O)Nc1ccccc1C(C)C` here?
Answer: 1.71

Question: For `O=c1[nH]c(=O)n(C2CCCO2)cc1F` (stereo unspecified), which logD is on record?
Answer: -0.27

Question: With `Cc1c2oc3c(C)ccc(C(=O)NC4C(=O)NC(C(C)C)C(=O)N5CCCC5C(=O)N(C)CC(=O)N(C)C(C(C)C)C(=O)OC4C)c3nc-2c(C(=O)NC2C(=O)NC(C(C)C)C(=O)N3CCCC3C(=O)N(C)CC(=O)N(C)C(C(C)C)C(=O)OC2C)c(N)c1=O` (stereo unspecified) (I: TVP[Sar][NMeV] / II: TVP[Sar][NMeV]; ester I:1-I:C, II:1-II:C; linker I:N-II:N via Actinocin(9to1); configuration not given here) as the molecule, how does the logD read?
Answer: 3.21

Question: With `Nc1ccc(C(F)(F)F)cc1` as the molecule, how does the logD read?
Answer: 2.39

same assay, conditions: pH 8.0

Question: With `OC(c1ccccc1)c1ccccn1` (stereo unspecified) as the molecule, how does the logD read?
Answer: 1.52

Question: With `COc1cc(S(C)=O)ccc1-c1nc2ccccc2[nH]1` (stereo unspecified) as the molecule, how does the logD read?
Answer: 1.17

same assay, conditions: pH 11.0

Question: For `c1cncc(CCN2CCCCC2)c1`, which logD is on record?
Answer: 1.66

Question: With `CCCCNCc1cccnc1` as the molecule, how does the logD read?
Answer: 1.34

Question: With `CC(C)N(Cc1cccnc1)C(C)C` as the molecule, how does the logD read?
Answer: 2.27

same assay, conditions: pH 12.0

Question: With `CCCC1CC(C(=O)NC(C(C)Cl)C2OC(SCC)C(O)C(O)C2O)N(CC)C1` (stereo unspecified) as the molecule, how does the logD read?
Answer: 3.18

Question: With `CCCCC1CC(C(=O)NC(C(C)O)C2OC(SC)C(O)C(O)C2O)N(CC)C1` (stereo unspecified) as the molecule, how does the logD read?
Answer: 1.76

Question: For `CCC[C@@H]1C[C@@H](C(=O)N[C@@H]([C@H]2O[C@H](SCC)[C@H](O)[C@@H](O)[C@H]2O)[C@@H](C)O)N(CC)C1`, which logD is on record?
Answer: 1.91

same assay, conditions: pH 13.0

Question: For `CC1(C)N=C(N)N=C(N)N1c1ccc(I)cc1`, which logD is on record?
Answer: 1.39

Question: With `CCN(CC)CC(O)c1ccccc1` (stereo unspecified) as the molecule, how does the logD read?
Answer: 2.02
